From patent US20220117938A1, “COMBINATON THERAPY WITH A DON PRODRUG AND AN IMMUNE CHECKPOINT INHIBITOR” (DRACEN PHARMACEUTICALS, INC., priority 2019, published 2022)

Test system: MC-38 tumors
Assay: Anti-tumor efficacy of Compound 1 in the subcutaneous MC-38 model: schedule comparison (Example 3)
Type: in vivo, Mus musculus
Method: Female C57BL/6 mice were inoculated subcutaneously at right flank with MC-38 cells for tumor development. Six days after tumor inoculation, 64 mice with tumor size ranging from 50-100 mm^3 (average tumor size 71 mm^3) were selected and assigned into 8 groups using stratified randomization with 8 mice per group based upon their tumor volumes. The treatments were started from the day of randomization (defined as D0), Group 1 was treated with Vehicle (Tween 80:Ethanol:Saline—5:5:90 v/v/v), S.C. QD*20 days, Group 2 was treated with Compound 1 at 1 mpk S.C. QD*28 days, Group 3 was treated with Compound 1 at 0.5 mpk S.C. QD*28 days, Group 4 was treated with Compound 1 at 1.4 mpk S.C. 5-days ON 2-days OFF×4 cycles, Group 5 was treated with Compound 1 at 0.7 mpk S.C. 5-days ON 2-days OFF×4 cycles, Group 6 was treated with Compound 1 at 3 mpk qd×5, followed by 1 mpk qd×23, S.C. QD, Group 7 was treated with Compound 1 at 1.5 mpk qd×5, followed by 0.5 mpk qd×23, S.C. QD and Group 8 was treated with Compound 1 at 1.4 mpk 10-days ON 4-days OFF×2 cycles, S.C.
Species: Mus musculus; Strain: C57BL/6; Age: 6-8 weeks; Sex: female; Body weight (at treatment start): 16-20 g.
The MC-38 tumor cells were maintained in vitro as a monolayer culture in DMEM medium supplemented with 10% heat inactivated fetal bovine serum and 100 μg/mL penicillin streptomycin at 37° C. in an atmosphere of 5% CO2 in air. The tumor cells were routinely subcultured twice weekly by trypsin-EDTA treatment. The cells growing to a confluency around 70%-80% were harvested and counted for tumor inoculation. The cultured MC-38 were harvested, re-suspended in base medium at a density of 1×10^7 cells/mL with viability>90%. Each mouse was inoculated subcutaneously at the right flank with 1×10^6 cells in 0.1 ml base medium for tumor development.
The treatments were started on day 6 after tumor inoculation when the tumor size reached 50-100 mm^3 (average tumor size 71 mm^3). Each group consisted of 8 tumor-bearing mice. The testing article was administrated to the mice at a dosing volume of 10 mL/Kg according to the predetermined regimen as shown in Table 3-1.
Tumor sizes were measured three times a week in two dimensions using a caliper, and the volume expressed in mm^3 using the formula: V=0.5 a×b^2 where a and b are the long and short diameters of the tumor, respectively. The tumor sizes were then used for the calculations of both tumor growth inhibition (TGI) and T/C values.
TGI is calculated for each group using the formula: […]
TVTreatment_DayN is the average tumor volume of a treatment group on a given day, TVTreatment_Day0 is the average tumor volume of the treatment group on the first day of treatment, TVVehicle_DayN is the average tumor volume of the vehicle control group on a given day, and TVVehicle_Day0 is the average tumor volume of the vehicle group on the first day of treatment.
The T/C value (in percent) is an indication of antitumor effectiveness, T/C (%)=RTVTreatment/RTVControl×100% (RTVTreatment: the mean RTV of the treatment group; RTVControl: the mean RTV of the vehicle treated group). RTV (relative tumor volume)=TVDayN/TVDay0. TVDayN and TVDay0 is the tumor volume on day N and Day 0 respectively. T/C (%)≤42% is considered as significant antitumor activity and <10% is considered as highly significant antitumor activity by the National Cancer Institute criteria.
Relative change of body weight (RCBW) of each mouse was calculated according to the following formula: […]
Animal survival curve: When an individual animal reached to the termination endpoint (TV>2000 mm^3), the mouse was euthanized. The time from treatment initiation to the termination was deemed as its survival time. Survival curve was plotted by Kaplan-Meier method. Median survival time (MST) was calculated for each group. Increase of life span (ILS) was calculated according to the following formula: […]
ILS (%)>25% is considered as a biologically significant survival benefit. […]

SMILES: CC(=O)N[C@@H](Cc1c[nH]c2ccccc12)C(=O)N[C@@H](CCC(=O)C=[N+]=[N-])C(=O)OC(C)C [Compound 1, Isopropyl (S)-2-((S)-2-acetamido-3-(1H-indol-3-yl)propanamido)-6-diazo-5-oxohexanoate]
- Tumor volume (Mean ± SEM) (Day 20, Group 3: 0.5 mg/kg qdx28, sc): 7 ± 1 mm^3
- Tumor volume (Mean ± SEM) (Day 20, Group 4: 1.4 mg/kg 5-days ON 2-days OFF x 4 cycles, sc): 0 ± 0 mm^3
- Tumor volume (Mean ± SEM) (Day 20, Group 5: 0.7 mg/kg 5-days ON 2-days OFF x 4 cycles, sc): 2 ± 1 mm^3
- Tumor volume (Mean ± SEM) (Day 20, Group 6: 3 mpk qdx5 followed by 1 mpk qdx23, sc): 5 ± 2 mm^3
- Tumor volume (Mean ± SEM) (Day 20, Group 7: 1.5 mpk qdx5 followed by 0.5 mpk qdx23, sc): 5 ± 1 mm^3
- Tumor volume (Mean ± SEM) (Day 20, Group 8: 1.4 mg/kg 10-days ON 4-days OFF x 2 cycles, sc): 6 ± 2 mm^3
- Tumor volume (Mean ± SEM) (Day 22, Group 2: 1 mg/kg qdx28, sc): 2 ± 1 mm^3
- Tumor volume (Mean ± SEM) (Day 22, Group 3: 0.5 mg/kg qdx28, sc): 6 ± 2 mm^3
- Tumor volume (Mean ± SEM) (Day 22, Group 4: 1.4 mg/kg 5-days ON 2-days OFF x 4 cycles, sc): 0 ± 0 mm^3
- Tumor volume (Mean ± SEM) (Day 22, Group 5: 0.7 mg/kg 5-days ON 2-days OFF x 4 cycles, sc): 2 ± 1 mm^3
- Tumor volume (Mean ± SEM) (Day 22, Group 6: 3 mpk qdx5 followed by 1 mpk qdx23, sc): 3 ± 1 mm^3
- Tumor volume (Mean ± SEM) (Day 22, Group 7: 1.5 mpk qdx5 followed by 0.5 mpk qdx23, sc): 6 ± 1 mm^3
- Tumor volume (Mean ± SEM) (Day 22, Group 8: 1.4 mg/kg 10-days ON 4-days OFF x 2 cycles, sc): 5 ± 2 mm^3
- Tumor volume (Mean ± SEM) (Day 25, Group 2: 1 mg/kg qdx28, sc): 5 ± 1 mm^3
- Tumor volume (Mean ± SEM) (Day 25, Group 3: 0.5 mg/kg qdx28, sc): 6 ± 1 mm^3
- Tumor volume (Mean ± SEM) (Day 25, Group 4: 1.4 mg/kg 5-days ON 2-days OFF x 4 cycles, sc): 0 ± 0 mm^3
- Tumor volume (Mean ± SEM) (Day 25, Group 5: 0.7 mg/kg 5-days ON 2-days OFF x 4 cycles, sc): 2 ± 1 mm^3
- Tumor volume (Mean ± SEM) (Day 25, Group 6: 3 mpk qdx5 followed by 1 mpk qdx23, sc): 2 ± 1 mm^3
- Tumor volume (Mean ± SEM) (Day 25, Group 7: 1.5 mpk qdx5 followed by 0.5 mpk qdx23, sc): 4 ± 1 mm^3
- Tumor volume (Mean ± SEM) (Day 25, Group 8: 1.4 mg/kg 10-days ON 4-days OFF x 2 cycles, sc): 5 ± 2 mm^3
- Tumor volume (Mean ± SEM) (Day 27, Group 2: 1 mg/kg qdx28, sc): 6 ± 2 mm^3
- Tumor volume (Mean ± SEM) (Day 27, Group 3: 0.5 mg/kg qdx28, sc): 7 ± 1 mm^3
- Tumor volume (Mean ± SEM) (Day 27, Group 4: 1.4 mg/kg 5-days ON 2-days OFF x 4 cycles, sc): 0 ± 0 mm^3
- Tumor volume (Mean ± SEM) (Day 27, Group 5: 0.7 mg/kg 5-days ON 2-days OFF x 4 cycles, sc): 1 ± 1 mm^3
- Tumor volume (Mean ± SEM) (Day 27, Group 6: 3 mpk qdx5 followed by 1 mpk qdx23, sc): 2 ± 1 mm^3
- Tumor volume (Mean ± SEM) (Day 27, Group 7: 1.5 mpk qdx5 followed by 0.5 mpk qdx23, sc): 4 ± 1 mm^3
- Tumor volume (Mean ± SEM) (Day 27, Group 8: 1.4 mg/kg 10-days ON 4-days OFF x 2 cycles, sc): 6 ± 2 mm^3
- Tumor volume (Mean ± SEM) (Day 29, Group 2: 1 mg/kg qdx28, sc): 17 ± 11 mm^3
- Tumor volume (Mean ± SEM) (Day 29, Group 3: 0.5 mg/kg qdx28, sc): 13 ± 3 mm^3
- Tumor volume (Mean ± SEM) (Day 29, Group 4: 1.4 mg/kg 5-days ON 2-days OFF x 4 cycles, sc): 1 ± 1 mm^3
- Tumor volume (Mean ± SEM) (Day 29, Group 5: 0.7 mg/kg 5-days ON 2-days OFF x 4 cycles, sc): 2 ± 1 mm^3
- Tumor volume (Mean ± SEM) (Day 29, Group 6: 3 mpk qdx5 followed by 1 mpk qdx23, sc): 5 ± 3 mm^3
- Tumor volume (Mean ± SEM) (Day 29, Group 7: 1.5 mpk qdx5 followed by 0.5 mpk qdx23, sc): 10 ± 3 mm^3
- Tumor volume (Mean ± SEM) (Day 29, Group 8: 1.4 mg/kg 10-days ON 4-days OFF x 2 cycles, sc): 17 ± 5 mm^3
- Tumor volume (Mean ± SEM) (Day 32, Group 2: 1 mg/kg qdx28, sc): 92 ± 47 mm^3
- Tumor volume (Mean ± SEM) (Day 32, Group 3: 0.5 mg/kg qdx28, sc): 45 ± 9 mm^3
- Tumor volume (Mean ± SEM) (Day 32, Group 4: 1.4 mg/kg 5-days ON 2-days OFF x 4 cycles, sc): 13 ± 7 mm^3
- Tumor volume (Mean ± SEM) (Day 32, Group 5: 0.7 mg/kg 5-days ON 2-days OFF x 4 cycles, sc): 20 ± 12 mm^3
- Tumor volume (Mean ± SEM) (Day 32, Group 6: 3 mpk qdx5 followed by 1 mpk qdx23, sc): 51 ± 35 mm^3
- Tumor volume (Mean ± SEM) (Day 32, Group 7: 1.5 mpk qdx5 followed by 0.5 mpk qdx23, sc): 44 ± 12 mm^3
- Tumor volume (Mean ± SEM) (Day 32, Group 8: 1.4 mg/kg 10-days ON 4-days OFF x 2 cycles, sc): 73 ± 19 mm^3
- Tumor volume (Mean ± SEM) (Day 34, Group 2: 1 mg/kg qdx28, sc): 190 ± 81 mm^3
- Tumor volume (Mean ± SEM) (Day 34, Group 3: 0.5 mg/kg qdx28, sc): 121 ± 20 mm^3
- Tumor volume (Mean ± SEM) (Day 34, Group 4: 1.4 mg/kg 5-days ON 2-days OFF x 4 cycles, sc): 37 ± 21 mm^3
- Tumor volume (Mean ± SEM) (Day 34, Group 5: 0.7 mg/kg 5-days ON 2-days OFF x 4 cycles, sc): 32 ± 16 mm^3
- Tumor volume (Mean ± SEM) (Day 34, Group 6: 3 mpk qdx5 followed by 1 mpk qdx23, sc): 114 ± 79 mm^3
- Tumor volume (Mean ± SEM) (Day 34, Group 7: 1.5 mpk qdx5 followed by 0.5 mpk qdx23, sc): 112 ± 24 mm^3
- Tumor volume (Mean ± SEM) (Day 34, Group 8: 1.4 mg/kg 10-days ON 4-days OFF x 2 cycles, sc): 168 ± 43 mm^3
- Tumor volume (Mean ± SEM) (Day 36, Group 2: 1 mg/kg qdx28, sc): 454 ± 212 mm^3
- Tumor volume (Mean ± SEM) (Day 36, Group 3: 0.5 mg/kg qdx28, sc): 285 ± 42 mm^3
- Tumor volume (Mean ± SEM) (Day 36, Group 4: 1.4 mg/kg 5-days ON 2-days OFF x 4 cycles, sc): 100 ± 47 mm^3
- Tumor volume (Mean ± SEM) (Day 36, Group 5: 0.7 mg/kg 5-days ON 2-days OFF x 4 cycles, sc): 125 ± 63 mm^3
- Tumor volume (Mean ± SEM) (Day 36, Group 6: 3 mpk qdx5 followed by 1 mpk qdx23, sc): 288 ± 174 mm^3
- Tumor volume (Mean ± SEM) (Day 36, Group 7: 1.5 mpk qdx5 followed by 0.5 mpk qdx23, sc): 364 ± 69 mm^3
- Tumor volume (Mean ± SEM) (Day 36, Group 8: 1.4 mg/kg 10-days ON 4-days OFF x 2 cycles, sc): 479 ± 121 mm^3
- Tumor volume (Mean ± SEM) (Day 39, Group 2: 1 mg/kg qdx28, sc): 1109 ± 398 mm^3
- Tumor volume (Mean ± SEM) (Day 39, Group 3: 0.5 mg/kg qdx28, sc): 592 ± 61 mm^3
- Tumor volume (Mean ± SEM) (Day 39, Group 4: 1.4 mg/kg 5-days ON 2-days OFF x 4 cycles, sc): 238 ± 72 mm^3
- Tumor volume (Mean ± SEM) (Day 39, Group 5: 0.7 mg/kg 5-days ON 2-days OFF x 4 cycles, sc): 242 ± 114 mm^3
- Tumor volume (Mean ± SEM) (Day 39, Group 6: 3 mpk qdx5 followed by 1 mpk qdx23, sc): 723 ± 345 mm^3
- Tumor volume (Mean ± SEM) (Day 39, Group 7: 1.5 mpk qdx5 followed by 0.5 mpk qdx23, sc): 904 ± 174 mm^3
- Tumor volume (Mean ± SEM) (Day 39, Group 8: 1.4 mg/kg 10-days ON 4-days OFF x 2 cycles, sc): 945 ± 260 mm^3
- Tumor volume (Mean ± SEM) (Day 41, Group 3: 0.5 mg/kg qdx28, sc): 1718 ± 136 mm^3
- Tumor volume (Mean ± SEM) (Day 41, Group 4: 1.4 mg/kg 5-days ON 2-days OFF x 4 cycles, sc): 420 ± 129 mm^3
- Mice completely tumor free on D67 ("cured") (Group 5: 0.7 mpk S.C. 5-days ON 2-days OFF×4 cycles, 8 mice per group): Four
